The target in one data set is T1, human EGF-R (Homo sapiens, UniProt P00533).
T1 construct: expressed in transfected cells; host or cells: F/L-HERc cells (murine IL-3-dependent FDC-P1 line transduced with an LXSN retroviral vector carrying human EGF-R cDNA; packaging line GP+E86)
T1 sequence (P00533 25-1210): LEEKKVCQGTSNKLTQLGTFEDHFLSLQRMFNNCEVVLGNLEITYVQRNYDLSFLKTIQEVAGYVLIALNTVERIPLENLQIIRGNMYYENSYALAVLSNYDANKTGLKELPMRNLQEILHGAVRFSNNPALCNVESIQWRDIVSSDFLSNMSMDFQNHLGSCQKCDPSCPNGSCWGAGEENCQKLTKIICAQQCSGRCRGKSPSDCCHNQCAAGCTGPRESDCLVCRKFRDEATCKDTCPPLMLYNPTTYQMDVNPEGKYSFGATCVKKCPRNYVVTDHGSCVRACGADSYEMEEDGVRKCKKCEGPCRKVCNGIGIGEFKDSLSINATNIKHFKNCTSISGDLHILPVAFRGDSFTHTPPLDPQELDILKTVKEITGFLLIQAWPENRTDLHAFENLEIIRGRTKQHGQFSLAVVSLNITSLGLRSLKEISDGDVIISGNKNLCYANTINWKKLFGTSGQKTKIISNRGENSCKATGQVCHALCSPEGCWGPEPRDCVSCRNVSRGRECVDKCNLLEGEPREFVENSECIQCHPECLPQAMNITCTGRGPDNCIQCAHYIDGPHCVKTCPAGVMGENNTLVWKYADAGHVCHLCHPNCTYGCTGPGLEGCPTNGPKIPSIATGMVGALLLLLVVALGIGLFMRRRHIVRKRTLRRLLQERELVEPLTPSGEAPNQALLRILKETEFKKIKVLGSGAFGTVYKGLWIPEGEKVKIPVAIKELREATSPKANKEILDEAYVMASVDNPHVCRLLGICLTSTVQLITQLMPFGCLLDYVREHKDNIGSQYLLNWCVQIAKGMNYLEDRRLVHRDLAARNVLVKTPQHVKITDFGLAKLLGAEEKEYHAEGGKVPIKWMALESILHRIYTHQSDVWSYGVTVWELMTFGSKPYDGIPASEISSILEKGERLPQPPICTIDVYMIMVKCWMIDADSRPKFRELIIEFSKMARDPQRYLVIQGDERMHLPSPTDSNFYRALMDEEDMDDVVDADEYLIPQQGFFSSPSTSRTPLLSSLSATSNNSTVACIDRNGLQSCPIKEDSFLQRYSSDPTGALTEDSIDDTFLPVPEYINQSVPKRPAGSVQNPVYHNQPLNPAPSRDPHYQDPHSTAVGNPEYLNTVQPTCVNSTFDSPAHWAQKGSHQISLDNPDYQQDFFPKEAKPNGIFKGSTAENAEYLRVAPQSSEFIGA
Briefly: Inhibition of EGF-dependent proliferation of F/L-HERc cells (Cell Titer 96 assay). In kind it is cell-based. Particulars: F/L-HERc cells (murine IL-3-dependent line expressing human EGF-R), stimulated with EGF 20 ng/ml, 48 hours at 37° C. From the text: A cell line of murine origin dependent on interleukin-3-(IL-3) which was genetically modified to express functional human EGF-R was used here. The proliferation of these cells known as F/L-HERc can therefore be stimulated either by murine IL-3 or by EGF (cf T. von Ruiden et al., EMBO J. 7, 2749-2756 (1988) and J. H. Pierce et al., Science 239, 628-631 (1988)).
The starting material used for the F/L-HERc cells was the cell line FDC-P1, the production of which has been described by T. M. Dexter et al., J. Exp. Med. 152. 1036-1047 (1980). Alternatively, however, other growth-factor-dependent cells may also be used (cf., e.g., J.H. Pierce et al., Science 239, 628-631 (1988); H. Shibuya et al., Cell 70, 57-67 (1992); and W. S. Alexander et al., EMBO J. 10, 3683-3691 (1991)). For expressing the human EGF-R cDNA (cf A. Ullrich et al., Nature 309, 418-425 (1984)) recombinant retroviruses were used as described by T. von Ruiden et al., EMBO J. 7, 2749-2756 (1988), except that the retroviral vector LXSN (cf A. D. Miller et al., BioTechniques 7, 980-990 (1989)) was used for the expression of the EGF-R cDNA and the line GP+E86 (cf D. Markowitz et al., J. Virol. 62, 1120-1124 (1988)) was used as the packaging cell.
The test was performed as follows:
F/L-HERc cells were cultivated in RPMI/1640 medium (BioWhittaker), supplemented with 10% fetal calf serum (FCS, Boehringer Mannheim), 2 mM glutamine (BioWhittaker), standard antibiotics and 20 ng/ml of human EGF (Promega), at 37° C. and 5% CO2. In order to investigate the inhibitory activity of the compounds according to the invention, 1.5×10^4 cells per well were cultivated in triplicate in 96-well plates in the above medium (200 μl), the cell proliferation being stimulated with either EGF (20 ng/ml) or murine IL-3. The IL-3 used was obtained from culture supernatants of the cell line X63/0 mIL-3 (cf H. Karasuyama et al., Eur. J. Immunol. 18, 97-104 (1988)). The compounds according to the invention were dissolved in 100% dimethylsulfoxide (DMSO) and added to the cultures in various dilutions, the maximum DMSO concentration being 1%. The cultures were incubated for 48 hours at 37° C.
In order to determine the inhibitory activity of the compounds according to the invention the relative cell number was measured in O.D. units using the Cell Titer 96™ Aqueous Non-Radioactive Cell Proliferation Assay (Promega). The relative cell number was calculated as a percentage of the control (F/LHERc cells without inhibitor) and the concentration of active substance which inhibits the proliferation of the cells by 50% (IC50) was derived therefrom.
The IC50 is the point on the concentration scale where inhibition reaches its midpoint. The low end stands for inhibition by little substance, the high end for a need for much substance. Take `COC(=O)CN1CCC(Nc2ncc3ncnc(Nc4ccc5[nH]ccc5c4)c3n2)CC1` [2(28), 4-[(indol-5-yl)amino]-6-({1-[(methoxycarbonyl)methyl]piperidin-4-yl}amino)pyrimido [5,4-d]pyrimidine]: the IC50 worked out at 26 nM. This counts as double-digit nanomolar. Same read-out and setting: the figure for `COC(=O)CN[C@H]1CC[C@H](Nc2ncc3ncnc(Nc4ccc(F)c(Cl)c4)c3n2)CC1` [3(10), 4-[(3-chloro-4-fluorophenyl)amino]-6-[(trans-4-{[(methoxycarbonyl)methyl]amino}cyclohex-1-yl)amino]pyrimido[5,4-d]pyrimidine] is 16 nM; for `COC(=O)CN(C)CC1CCN(c2ncc3ncnc(Nc4ccc(F)c(Cl)c4)c3n2)CC1` [2(19), 4-[(3-chloro-4-fluorophenyl)amino]-6-[4-({N-[(methoxycarbonyl)methyl]-N-methylamino}methyl)piperidin-1-yl]pyrimido[5,4-d]pyrimidine] it is 129 nM.

In the case of `CN(CCC(=O)O)C1CCN(c2ncc3ncnc(Nc4ccc(F)c(Cl)c4)c3n2)CC1` [1(11), 4-[(3-chloro-4-fluorophenyl)amino]-6-[4-[N-(2-carboxyethyl)-N-methylamino]piperidin-1-yl]pyrimido[5,4-d]pyrimidine], 2320 nM corresponded to half-maximal inhibition (IC50). The compound `COC(=O)C(C(=O)OC)N1CCC(Nc2ncc3ncnc(Nc4ccc(F)c(Cl)c4)c3n2)CC1` [3(18)] showed an IC50 of 40 nM.

The compound `CCOP(C)(=O)CN1CCC(Nc2ncc3ncnc(Nc4cccc(Br)c4)c3n2)CC1` (stereo not drawn) [4(2), 4-[(3-bromophenyl)amino]-6-[(1-{[(ethoxy)(methyl)phosphoryl]methyl}piperidin-4-yl)amino]pyrimido [5,4-d]pyrimidine] yielded an IC50 of 40 nM. On the same count and under the same terms, the figure for `COC(=O)CN(CC(=O)OC)[C@H]1CC[C@H](Nc2ncc3ncnc(Nc4ccc(F)c(Cl)c4)c3n2)CC1` [3(5), 4-[(3-chloro-4-fluorophenyl)amino]-6-[(trans-4-{N,N-bis-[(methoxycarbonyl)methyl]amino}cyclohex-1-yl)amino]pyrimido [5,4-d]pyrimidine] is 20 nM. Still for that read-out and setting: under `COC(=O)CN1CCCC(Nc2ncc3ncnc(Nc4cccc(Br)c4)c3n2)C1` (stereo not drawn) [3(17), 4-[(3-bromophenyl)amino]-6-({1-[(methoxycarbonyl)methyl]piperidin-3-yl}amino)pyrimido[5,4-d]pyrimidine] stands 17 nM; under `COC(=O)CCN(C)C1CCN(c2ncc3ncnc(Nc4ccc(F)c(Cl)c4)c3n2)CC1` [2(15), 4-[(3-chloro-4-fluorophenyl)amino]-6-(4-{N-[2-(methoxycarbonyl)ethyl]-N-methylamino}piperidin-1-yl)pyrimido[5,4-d]pyrimidine], 1760 nM.

For the compound `CCOC(=O)CCN1CCC(N2CCN(c3ncc4ncnc(Nc5ccc(F)c(Cl)c5)c4n3)CC2)CC1` [2(12), 4-[(3-chloro-4-fluorophenyl)amino]-6-(4-{1-[2-(ethoxycarbonyl)ethyl]piperidin-4-yl}piperazin-1-yl)pyrimido[5,4-d]pyrimidine], the IC50 is 810 nM.

In the case of `CCOC(=O)CN(CC(=O)OCC)[C@H]1CC[C@H](Nc2ncc3ncnc(Nc4ccc(F)c(Cl)c4)c3n2)CC1` [3(4), 4-[(3-chloro-4-fluorophenyl)amino]-6-[(trans-4-{N,N-bis-[(ethoxycarbonyl)methyl]amino}cyclohex-1-yl)amino]pyrimido[5,4-d]pyrimidine], the IC50 was 58 nM. Still for that read-out and setting: the figure for `COC(=O)C(C(=O)OC)N1CCC(Nc2ncc3ncnc(Nc4cccc(Br)c4)c3n2)CC1` [3(16)] is 20 nM. On the same count and under the same terms, the figure for `CCOP(=O)(CN1CCC(Nc2ncc3ncnc(Nc4cccc(Br)c4)c3n2)CC1)OCC` [4(1), 4-[(3-bromophenyl)amino]-6-({1-[(diethoxyphosphoryl)methyl]piperidin-4-yl}amino)pyrimido[5,4-d]pyrimidine] is 40 nM.

Tested on in another data set: not given
Assay: not given
Settings: not given
A word on the melting point: it is the temperature, or range, at which the solid turns liquid. `COC(=O)CN1CCC(Nc2ncc3ncnc(Nc4ccc5[nH]ccc5c4)c3n2)CC1` [2(28), 4-[(indol-5-yl)amino]-6-({1-[(methoxycarbonyl)methyl]piperidin-4-yl}amino)pyrimido [5,4-d]pyrimidine] displayed a melting point of 167 °C.

As for `CN(CCC(=O)O)C1CCN(c2ncc3ncnc(Nc4ccc(F)c(Cl)c4)c3n2)CC1` [1(11), 4-[(3-chloro-4-fluorophenyl)amino]-6-[4-[N-(2-carboxyethyl)-N-methylamino]piperidin-1-yl]pyrimido[5,4-d]pyrimidine], the melting point is 139 to 165 °C (dec.).

(Values after US20020082420A1, “Bicyclic heterocycles, pharmaceutical compositions containing them, their use, and processes for preparing them” (priority 2000, published 2002).)
